From patent US10189798B2, “Antimicrobial compounds, methods of making the same and articles comprising them” (MEDICAL TECHNOLOGY RESEARCH INC, priority 2014, dated 2019)

Columns and labels:
[1] = tested on: Staphylococcus aureus ATCC6538; assay: Zone of inhibition (ZOI) assay; assay type: cell-based; conditions: for antimicrobial activity, qualitative: ZOI assay, S. aureus ATCC6538
Description: The antimicrobial activity of the antimicrobial silver s-triazine compounds was verified by standard zone of inhibition (ZOI) assay known to those skilled in the art. Briefly, in this assay, samples were placed on plates with proprietary agar formula (similar to Mueller Hinton Agar (MHA)) that were inoculated with bacteria and incubated at 37° C. overnight. If antimicrobial activity in the sample was present, it formed a clear zone around the edges. As negative control, the samples without the silver active compound were used. For primary screening of antimicrobial activity, the gram positive bacteria Staphylococcus aureus ATCC6538 was employed in the assay. To examine broad spectrum antimicrobial activity, various different types of organisms including gram negative Pseudomonas aeruginosa ATCC9027, Methicillin-Resistance Staphylococcus aureus (MRSA) and Vancomycin-Resistant Enterococci (VRE) could be employed. In investigating the broad spectrum activity, the ZOI assay is performed slightly differently. Instead of laying the samples on plates individually inoculated with different types of bacteria, the bacterial inoculums are streaked as parallel lines on one plate. After streaking the inoculum linearly, the samples are deposited as a continuous bead string in perpendicular direction to the streak lines. Evidence of antimicrobial activity in the sample is seen in the form of interruptions on both sides of the edges of the sample string.

[2] = Discoloration on direct sunlight exposure; assay type: physicochemical; conditions: for direct sunlight exposure withstood before any sign of discoloration: undiluted aqueous suspension, ~5500 ppm silver
Description: Silver-PDT powder (˜0.027 g) was transferred to the gel and hand-mixed to uniformity with a spatula to obtain clear to hazy gel. […] For DMCA, the tube was kept at ˜25° C. overnight for reaction completion. […] Considering that the amount of silver in the undiluted suspensions was ˜5500 ppm, the discoloration resistance can be considered extraordinary. In contrast, the undiluted suspension of Ag-PDT withstood 0.5 h of sunlight exposure before discoloration was visible. […] A suspension of Ag-MIC was prepared according to Example 13. […] A 2″×2″ piece of cotton gauze was soaked in the clear solution, blotted with paper towel to remove excess and dried at 55° C. for 0.25 to 0.5 h. In the same clear solution prepared separately, a filter paper strip was immersed, shaken and then dried at 55° C. for 0.25 h-0.5 h. Both substrates with silver-MIC were exposed to direct sunlight. […] Thus, in both instances following substrate impregnation, Ag-MIC still maintained robust light discoloration resistance. […] On a clean glass slide, a small volume (˜0.25 ml) was spread with a transfer pipet and left in an oven at 55° C. to dry for 0.5 h. The theoretical amount of silver in the dried coating was estimated at ˜2700 ppm. […] Such coating composition could be useful in providing antimicrobial surfaces. […] Similar sized piece of each dressing was pouched in foil and steam sterilized. After cooling to room temperature the samples were examined for discoloration. None was observed. […] Even after 4 h of direct sunlight exposure, no discoloration of the Ag-PDT impregnated paper was observed. The approximate theoretical amount of silver in the impregnated paper strip was ˜8700 ppm.

[3] = Discoloration on table lamp light exposure; assay type: physicochemical; conditions: for time without discoloration under table lamp light: clear solution with ammonium hydroxide, ~5000 ppm silver, lamp at 12″
Description: Stock solutions (0.1M) of monosodium salts of DMCA, EIC and MIC were prepared. […] To accelerate anion exchange between sodium and silver cations, heating of liquids was carried out in microwave between ˜50° to 55° C. The tube contents were cooled and then to each tube neat ammonium hydroxide (0.1 ml) was added which caused the suspensions to clear for all three compounds. […] The theoretical content of silver in the clear solutions was ˜5000 ppm. To a 100 ml PP cup with stir bar, deionized water was added (13.2 ml).

[4] = water, 25° C.
[5] = Discoloration on heat exposure (55° C. / steam sterilization); assay type: physicochemical; conditions: 550 ppm silver
Description: The sterilization of any samples (devices or compositions) comprising antimicrobial silver s-triazine compounds was carried out by steam sterilization. By subjecting test samples to steam sterilization, one can ascertain the ability of the antimicrobial silver s-triazine compounds to withstand thermal stresses. […] Thus, the test samples experienced nearly 3.5 h of hostile temperature condition. […] Silver-PDT powder (˜0.027 g) was transferred to the gel and hand-mixed to uniformity with a spatula to obtain clear to hazy gel. […] Similar sized piece of each dressing was pouched in foil and steam sterilized. After cooling to room temperature the samples were examined for discoloration. None was observed.

[6] = Alginate sheet, Example 17, ~4500 ppm silver

direct sunlight exposure withstood before any sign of discoloration [2] [h] | discoloration as suspension temperature increased during photo-exposure ([2]; diluted suspension ~1350 ppm silver, temperature ~50° C.) | direct sunlight exposure without discoloration ([2]; impregnated thin paper strip, ~8700 ppm silver) [h] | direct sunlight exposure required before signs of discoloration ([2]; suspension diluted with deionized water, ~1350 ppm silver, PP tube) | gel discoloration at 55° C. ([5]; carboxymethyl cellulose gel, short term exposure) | SMILES | Zone width [1, 6] [mm] | antimicrobial activity, qualitative [1] | time without discoloration under table lamp light [3] [h] | aqueous solubility [4] [µg/mL] | Zone width ([1]; Cotton gauze, Example 14) [mm] | Zone width ([1]; Filter paper, Example 14) [mm] | Zone width ([1]; Gel, Example 15, 550 ppm silver) [mm] | direct sunlight exposure without discoloration ([2]; impregnated cotton gauze, Example 14) [h] | direct sunlight exposure after which faint cream color registered ([2]; impregnated filter paper strip, Example 14) [h] | gel discoloration under table lamp light ([3]; Laponite gel, 550 ppm silver, overnight) | gel change at 55° C. ([5]; Laponite gel, 4 weeks) | gel discoloration in direct sunlight ([2]; carboxymethyl cellulose gel, 550 ppm silver, PP tubes)
1.5 |  |  |  |  | CCn1c(=O)[n-]c(=O)[nH]c1=O.[Ag+] [Ag-EIC] | 8.5 | strong activity | 96 | 16.5 |  |  |  |  |  |  |  | 
0.5 | no discoloration was seen | > 4 | over 4 h | did not show any gel discoloration | O=c1nc(-c2ccccc2)[nH]c(=O)[n-]1.[Ag+] [Ag-PDT] | 5.5 | strong activity |  |  |  |  |  |  |  |  |  | no discoloration of gel was seen for up to an hour

SMILES | direct sunlight exposure withstood before any sign of discoloration [2] [h] | discoloration as suspension temperature increased during photo-exposure ([2]; diluted suspension ~1350 ppm silver, temperature ~50° C.) | direct sunlight exposure without discoloration ([2]; impregnated thin paper strip, ~8700 ppm silver) [h] | direct sunlight exposure required before signs of discoloration ([2]; suspension diluted with deionized water, ~1350 ppm silver, PP tube) | gel discoloration at 55° C. ([5]; carboxymethyl cellulose gel, short term exposure) | Zone width [1, 6] [mm] | antimicrobial activity, qualitative [1] | time without discoloration under table lamp light [3] [h] | aqueous solubility [4] [µg/mL] | Zone width ([1]; Cotton gauze, Example 14) [mm] | Zone width ([1]; Filter paper, Example 14) [mm] | Zone width ([1]; Gel, Example 15, 550 ppm silver) [mm] | direct sunlight exposure without discoloration ([2]; impregnated cotton gauze, Example 14) [h] | direct sunlight exposure after which faint cream color registered ([2]; impregnated filter paper strip, Example 14) [h] | gel discoloration under table lamp light ([3]; Laponite gel, 550 ppm silver, overnight) | gel change at 55° C. ([5]; Laponite gel, 4 weeks) | gel discoloration in direct sunlight ([2]; carboxymethyl cellulose gel, 550 ppm silver, PP tubes)
Cn1c(=O)[n-]c(=O)[nH]c1=O.[Ag+] [Ag-MIC] | 1.5 |  |  |  |  | 9.5 | strong activity | 72 | 48 | 5.5 | 8.0 | 2.5 | > 3 | 1.5 | did not discolor | practically unchanged | 
